Assays:
[1] = tested on: lung epithelial cells of cystic fibrosis patients; settings: U.S. Pat. No. 5,292,498; cited from earlier work
lung epithelial cells = settings: Boucher et al. 1995, Gheber et al. 1995; cited from earlier work
otitis media = test: Treatment of otitis media in children (Example 1); assay type: in vivo, human; settings: children with otitis media; nasal drops or nasal spray twice daily, 10^-7 to 10^-2 moles/liter, with antibiotic therapy
Description: Uridine 5′-triphosphate (UTP) is administered to children diagnosed with otitis media (OM). UTP is administered via nasal drops or nasal spray, twice daily, for a total of 5-10 days. The concentration of UTP is in the range of 10^−7 to 10^−2 moles/liter. Treatment with UTP begins as soon as OM is diagnosed and antibiotic therapy is initiated. The length of treatment for each patient is up to one month (28 days); the preferable length of treatment is one week (7 days). Effectiveness of UTP in eliminating middle ear fluid is assessed by several methods including: pneumatic otoscopy (to diagnose fluid in the middle ear and to evaluate the status of eardrum); tympanometry (to evaluate compliance of tympanic membrane/eardrum and to estimate middle ear pressure); acoustic reflectometry (to diagnose presence of air or fluid in the middle ear); and hearing evaluation tests.

Compound: Nc1ncnc2c1ncn2[C@@H]1O[C@H](COP(=O)(O)OP(=O)(O)OP(=O)(O)O)[C@@H](O)[C@H]1O [ATP, adenosine 5′-triphosphate]
- chloride and water secretion [1]: induce chloride and water secretion
- ciliary beat frequency (lung epithelial cells): stimulate the ciliary beat frequency

Compound: O=c1ccn([C@@H]2O[C@H](COP(=O)(O)OP(=O)(O)OP(=O)(O)O)[C@@H](O)[C@H]2O)c(=O)[nH]1 [UTP, uridine 5′-triphosphate]
- number of days that middle ear fluid is present (otitis media): decrease in the number of days that middle ear fluid is present
- number of days that symptoms such as pain or hearing impairment are experienced (otitis media): decrease in the number of days that symptoms such as pain or hearing impairment are experienced
- chloride and water secretion [1]: induce chloride and water secretion
- ciliary beat frequency (lung epithelial cells): stimulate the ciliary beat frequency
